Test results taken from PubChem BioAssay (NCI).
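Interpolation was linear, between the two tested concentrations surrounding the appropriate level; five concentrations were tested over 48 hours in 96-well plates. TGI marks complete inhibition of growth.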

What was measured:
Test in all cases: growth of human tumour cells (NCI), 48 h
[1] = test system: DU-145 prostate
[2] = test system: SNB-75 CNS
[3] = test system: A549 NSCLC
[4] = test system: LOX IMVI melanoma
[5] = test system: IGROV1 ovarian
[6] = test system: MCF7 breast
[7] = test system: OVCAR-5 ovarian
[8] = test system: RPMI-8226 leukemia
[9] = test system: HCT-15 colon
[10] = test system: MALME-3M melanoma
[11] = test system: HT29 colon
[12] = test system: SK-MEL-28 melanoma
[13] = test system: HOP-92 NSCLC
[14] = test system: SF-539 CNS
[15] = test system: EKVX NSCLC
[16] = test system: OVCAR-8 ovarian
[17] = test system: TK-10 renal
[18] = test system: UACC-62 melanoma
[19] = test system: CCRF-CEM leukemia
[20] = test system: MDA-MB-435
[21] = test system: HCC-2998 colon
[22] = test system: SN12C renal
[23] = test system: SW-620 colon
[24] = test system: K-562 leukemia
[25] = test system: MOLT-4 leukemia
[26] = test system: HCT-116 colon
[27] = test system: PC-3 prostate
[28] = test system: M14 melanoma
[29] = test system: OVCAR-4 ovarian
[30] = test system: ACHN renal
[31] = test system: NCI-H522 lung
[32] = test system: HOP-62 NSCLC
[33] = test system: SF-268 CNS
[34] = test system: MDA-N
[35] = test system: HS 578T breast
[36] = test system: SK-OV-3 ovarian
[37] = test system: T-47D breast
[38] = test system: HL-60(TB) leukemia
[39] = test system: NCI-H226 lung
[40] = test system: SK-MEL-5 melanoma
[41] = test system: SK-MEL-2 melanoma
[42] = test system: OVCAR-3 ovarian
[43] = test system: SNB-19 CNS
[44] = test system: UACC-257 melanoma
[45] = test system: SR leukemia
[46] = test system: NCI/ADR-RES ovarian
[47] = test system: UO-31 renal
[48] = test system: RXF 393 renal
[49] = test system: SF-295 CNS
[50] = test system: COLO 205 colon
[51] = test system: MDA-MB-231 breast
[52] = test system: A498 renal
[53] = test system: BT-549 breast
[54] = test system: 786-0 renal
[55] = test system: NCI-H460 lung
[56] = test system: KM12 colon
[57] = test system: U251 CNS
[58] = test system: NCI-H23 lung
[59] = test system: CAKI-1 renal

COc1cc([C@H]2Oc3c(OC)cc(CCCO)cc3[C@@H]2CO)ccc1O
TGI [1]: > 100 µM
TGI [2]: > 100 µM
TGI [3]: > 100 µM
TGI [4]: > 100 µM
TGI [5]: > 100 µM
TGI [6]: > 100 µM
TGI [7]: > 100 µM
TGI [8]: > 100 µM
TGI [9]: > 100 µM
TGI [10]: > 100 µM
TGI [11]: > 100 µM
TGI [12]: > 100 µM
TGI [13]: > 100 µM
TGI [14]: > 100 µM
TGI [15]: > 100 µM
TGI [16]: > 100 µM
TGI [17]: > 100 µM
TGI [18]: > 100 µM
TGI [19]: > 100 µM
TGI [20]: > 100 µM
TGI [21]: > 100 µM
TGI [22]: > 100 µM
TGI [23]: > 100 µM
TGI [24]: > 100 µM
TGI [25]: > 100 µM
TGI [26]: > 100 µM
TGI [27]: > 100 µM
TGI [28]: > 100 µM
TGI [29]: > 100 µM
TGI [30]: > 100 µM
TGI [31]: > 100 µM
TGI [32]: > 100 µM
TGI [33]: > 100 µM
TGI [34]: > 100 µM
TGI [35]: > 100 µM
TGI [36]: > 100 µM
TGI [37]: > 100 µM
TGI [38]: > 100 µM
TGI [39]: > 100 µM
TGI [40]: > 100 µM
TGI [41]: > 100 µM
TGI [42]: > 100 µM
TGI [43]: > 100 µM
TGI [44]: > 100 µM
TGI [45]: > 100 µM
TGI [46]: > 100 µM
TGI [47]: > 100 µM
TGI [48]: > 100 µM
TGI [49]: > 100 µM
TGI [50]: > 100 µM
TGI [51]: > 100 µM
TGI [52]: > 100 µM
TGI [53]: > 100 µM
TGI [54]: > 100 µM
TGI [55]: > 100 µM
TGI [56]: > 100 µM
TGI [57]: > 100 µM
TGI [58]: > 100 µM

CN(CCc1ccc(Cl)c(Cl)c1)CCN(C)CCN1CCCC1
TGI [59]: 32.1 µM
TGI [1]: 86.4 µM
TGI [2]: 31.5 µM
TGI [3]: 28.3 µM
TGI [4]: 20.1 µM
TGI [5]: 43.7 µM
TGI [6]: 26.3 µM
TGI [7]: 43.3 µM
TGI [8]: 8.97 µM
TGI [9]: 38.4 µM
TGI [10]: 15 µM
TGI [11]: 12.5 µM
TGI [12]: 3.34 µM
TGI [13]: 16 µM
TGI [14]: 17.5 µM
TGI [15]: 35.5 µM
TGI [16]: 62 µM
TGI [17]: 26.7 µM
TGI [18]: 3.74 µM
TGI [19]: 14.6 µM
TGI [20]: 4.5 µM
TGI [21]: 4.5 µM
TGI [22]: 40.2 µM
TGI [23]: 31.2 µM
TGI [24]: 7.27 µM
TGI [25]: 20.1 µM
TGI [26]: 18.7 µM
TGI [27]: 39.7 µM
TGI [28]: 9.88 µM
TGI [29]: > 100 µM
TGI [30]: 47.2 µM
TGI [31]: 20.9 µM
TGI [32]: 34.9 µM
TGI [33]: 29.8 µM
TGI [34]: 3.74 µM
TGI [35]: 46.3 µM
TGI [36]: 54.3 µM
TGI [37]: 44.6 µM
TGI [38]: 31.7 µM
TGI [39]: 38.5 µM
TGI [40]: 7.75 µM
TGI [41]: 10 µM
TGI [42]: 70.4 µM
TGI [43]: 43.3 µM
TGI [44]: 5.04 µM
TGI [45]: 17.2 µM
TGI [46]: > 72.7 µM
TGI [47]: 17.2 µM
TGI [48]: 26.6 µM
TGI [49]: 32.4 µM
TGI [50]: 5.3 µM
TGI [51]: 23 µM
TGI [52]: 26.3 µM
TGI [53]: 36.2 µM
TGI [54]: 21.9 µM
TGI [55]: 25.7 µM
TGI [56]: 24.8 µM
TGI [57]: 24.4 µM
TGI [58]: 38.3 µM

CCOC(=O)C(NC(=O)CC)(Nc1ccc(S(=O)(=O)Nc2nc(C)cc(C)n2)cc1)C(F)(F)F (centres undefined)
TGI [59]: > 100 µM
TGI [1]: > 100 µM
TGI [2]: > 100 µM
TGI [3]: > 100 µM
TGI [4]: > 100 µM
TGI [5]: > 100 µM
TGI [6]: > 100 µM
TGI [7]: > 100 µM
TGI [8]: > 100 µM
TGI [9]: > 100 µM
TGI [10]: > 100 µM
TGI [11]: > 100 µM
TGI [12]: > 100 µM
TGI [13]: > 100 µM
TGI [14]: > 100 µM
TGI [15]: > 100 µM
TGI [16]: > 100 µM
TGI [17]: > 100 µM
TGI [18]: > 100 µM
TGI [19]: > 100 µM
TGI [20]: > 100 µM
TGI [21]: > 100 µM
TGI [22]: > 100 µM
TGI [23]: > 100 µM
TGI [24]: > 100 µM
TGI [25]: > 100 µM
TGI [26]: > 100 µM
TGI [27]: > 100 µM
TGI [28]: > 100 µM
TGI [29]: > 100 µM
TGI [30]: > 100 µM
TGI [31]: > 100 µM
TGI [32]: > 100 µM
TGI [33]: > 100 µM
TGI [34]: > 100 µM
TGI [35]: > 100 µM
TGI [36]: > 100 µM
TGI [37]: > 100 µM
TGI [38]: > 100 µM
TGI [39]: > 100 µM
TGI [40]: > 100 µM
TGI [41]: > 100 µM
TGI [42]: > 100 µM
TGI [43]: > 100 µM
TGI [44]: > 100 µM
TGI [45]: > 100 µM
TGI [46]: > 100 µM
TGI [47]: > 100 µM
TGI [48]: > 100 µM
TGI [49]: > 100 µM
TGI [50]: > 100 µM
TGI [51]: > 100 µM
TGI [52]: > 100 µM
TGI [53]: > 100 µM
TGI [54]: > 100 µM
TGI [55]: > 100 µM
TGI [56]: > 100 µM
TGI [57]: > 100 µM
TGI [58]: > 100 µM

ONC1=Nc2ccccc2OCc2cc(Br)c(Br)cc2COc2ccccc2N=C1NO
TGI [59]: 29.3 µM
TGI [1]: 29.3 µM
TGI [2]: > 54.7 µM
TGI [3]: > 54 µM
TGI [4]: 45.1 µM
TGI [5]: > 37.7 µM
TGI [6]: > 44.7 µM
TGI [7]: 42.8 µM
TGI [8]: 43.4 µM
TGI [9]: > 44.4 µM
TGI [10]: 42.1 µM
TGI [11]: > 43.5 µM
TGI [12]: > 57.5 µM
TGI [13]: 32 µM
TGI [15]: 47.2 µM
TGI [16]: > 47.5 µM
TGI [17]: > 59.6 µM
TGI [18]: 35.7 µM
TGI [19]: > 34.1 µM
TGI [20]: > 54.3 µM
TGI [21]: 31.8 µM
TGI [22]: 27.3 µM
TGI [23]: > 48.3 µM
TGI [24]: > 44.6 µM
TGI [25]: > 31.3 µM
TGI [26]: 32.9 µM
TGI [27]: 31.3 µM
TGI [28]: > 54.2 µM
TGI [29]: > 52.6 µM
TGI [30]: > 43.3 µM
TGI [31]: 41.9 µM
TGI [32]: 38.9 µM
TGI [33]: > 57.4 µM
TGI [34]: 34.1 µM
TGI [35]: > 69.8 µM
TGI [36]: > 53.1 µM
TGI [37]: 31.1 µM
TGI [38]: 25 µM
TGI [39]: > 52.7 µM
TGI [40]: 30.4 µM
TGI [41]: 38.7 µM
TGI [42]: > 48.1 µM
TGI [43]: 24.2 µM
TGI [44]: 56.6 µM
TGI [45]: 15.2 µM
TGI [46]: > 53.7 µM
TGI [47]: > 54.4 µM
TGI [48]: 47.9 µM
TGI [49]: > 53.6 µM
TGI [50]: 21.5 µM
TGI [51]: 35.5 µM
TGI [52]: 43.2 µM
TGI [53]: 42.5 µM
TGI [54]: > 44.3 µM
TGI [55]: 30.2 µM
TGI [56]: > 46 µM
TGI [57]: 41.8 µM
TGI [58]: 44.5 µM
